Legend:
blackgrass = assay: Test B pre/postemergence blackgrass; type: in vivo, Alopecurus myosuroides
Method in brief: (§1)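 Test chemicals in a non-phytotoxic solvent mixture with surfactant were sprayed preemergence onto planted seeds and postemergence onto plants 2 to 18 cm tall (1- to 4-leaf stage). After twelve to sixteen days in a greenhouse, injury was visually rated against untreated controls from 0 (no effect) to 10 (complete control).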

giant foxtail = assay: Test B pre/postemergence giant foxtail; type: in vivo, Setaria faberii
Method in brief: as §1

bedstraw = assay: Test B pre/postemergence bedstraw; type: in vivo, Galium aparine
Method in brief: as §1

crabgrass = assay: Test B pre/postemergence crabgrass; type: in vivo, Digitaria sanguinalis
Method in brief: as §1

rape = assay: Test B pre/postemergence rape; type: in vivo, Brassica napus
Method in brief: as §1

morningglory = assay: Test B pre/postemergence morningglory; type: in vivo, Ipomoea hederacea
Method in brief: as §1

cocklebur = assay: Test B pre/postemergence cocklebur; type: in vivo, Xanthium strumarium
Method in brief: as §1

surinam grass = assay: Test B pre/postemergence surinam grass; type: in vivo, Brachiaria decumbens
Method in brief: as §1

wild oat = assay: Test B pre/postemergence wild oat; type: in vivo, Avena fatua
Method in brief: as §1

sugar beet = assay: Test B pre/postemergence sugar beet; type: in vivo, Beta vulgaris
Method in brief: as §1

corn = assay: Test B pre/postemergence corn; type: in vivo, Zea mays
Method in brief: as §1

velvetleaf = assay: Test B pre/postemergence velvetleaf; type: in vivo, Abutilon theophrasti
Method in brief: as §1

pigweed = assay: Test B pre/postemergence pigweed; type: in vivo, Amaranthus retroflexus
Method in brief: as §1

purple nutsedge = assay: Test B pre/postemergence purple nutsedge; type: in vivo, Cyperus rotundus
Method in brief: as §1

soybean = assay: Test B pre/postemergence soybean; type: in vivo, Glycine max
Method in brief: as §1

wheat = assay: Test B pre/postemergence wheat; type: in vivo, Triticum aestivum
Method in brief: as §1

[1] = Postemergence, Rate 62 g/ha, scale 0 to 10, 0 is no effect, 10 is complete control
[2] = Postemergence, Rate 125 g/ha, scale of 0 to 10 where 0 is no effect and 10 is complete control
[3] = Preemergence, Rate 125 g/ha, scale of 0 to 10 where 0 is no effect and 10 is complete control
[4] = Preemergence, Rate 250 g/ha, scale 0 (no effect) to 10 (complete control)
[5] = Rate 62 g/ha, Preemergence, scale 0 to 10
[6] = Rate 250 g/ha, Postemergence, scale 0 to 10, 0 is no effect, 10 is complete control
[7] = Rate 500 g/ha, Postemergence, scale 0 to 10, 0 is no effect, 10 is complete control
[8] = Rate 500 g/ha, Preemergence, scale 0 to 10 (0 no effect, 10 complete control)

CC(C)N(C(=O)n1oc(=O)n(CCCCl)c1=O)c1ccc(Cl)cc1 [Compound 749]
Plant response rating, Blackgrass (blackgrass; [1]): 5 | Blackgrass plant response rating (blackgrass; [2]): 5 | Plant response rating, Blackgrass (blackgrass; [3]): 2 | Blackgrass plant response rating (blackgrass; [4]): 6 | Blackgrass plant response rating (blackgrass; [5]): 0 | Blackgrass plant response rating (blackgrass; [6]): 6 | Blackgrass plant response rating (blackgrass; [7]): 6 | Blackgrass plant response rating (blackgrass; [8]): 9 | Plant response rating, Giant foxtail (giant foxtail; [1]): 3 | Giant foxtail plant response rating (giant foxtail; [2]): 5 | Plant response rating, Giant foxtail (giant foxtail; [3]): 10 | Giant foxtail plant response rating (giant foxtail; [4]): 10 | Giant foxtail plant response rating (giant foxtail; [5]): 9 | Giant foxtail plant response rating (giant foxtail; [6]): 9 | Giant foxtail plant response rating (giant foxtail; [7]): 9 | Giant foxtail plant response rating (giant foxtail; [8]): 10 | Plant response rating, Bedstraw (bedstraw; [1]): 3 | Plant response rating, Bedstraw (bedstraw; [3]): 0 | Bedstraw plant response rating (bedstraw; [4]): 0 | Bedstraw plant response rating (bedstraw; [5]): 0 | Bedstraw plant response rating (bedstraw; [6]): 3 | Bedstraw plant response rating (bedstraw; [8]): 4 | Plant response rating, Crabgrass (crabgrass; [1]): 4 | Crabgrass plant response rating (crabgrass; [2]): 8 | Plant response rating, Crabgrass (crabgrass; [3]): 10 | Crabgrass plant response rating (crabgrass; [4]): 10 | Crabgrass plant response rating (crabgrass; [5]): 9 | Crabgrass plant response rating (crabgrass; [6]): 9 | Crabgrass plant response rating (crabgrass; [7]): 9 | Crabgrass plant response rating (crabgrass; [8]): 10 | Plant response rating, Rape (rape; [1]): 2 | Rape plant response rating (rape; [2]): 2 | Plant response rating, Rape (rape; [3]): 0 | Rape plant response rating (rape; [4]): 0 | Rape plant response rating (rape; [5]): 0 | Rape plant response rating (rape; [6]): 6 | Rape plant response rating (rape; [7]): 6 | Rape plant response rating (rape; [8]): 5 | Plant response rating, Morningglory (morningglory; [1]): 2 | Morningglory plant response rating (morningglory; [2]): 3 | Plant response rating, Morningglory (morningglory; [3]): 0 | Morningglory plant response rating (morningglory; [4]): 0 | Morningglory plant response rating (morningglory; [5]): 0 | Morningglory plant response rating (morningglory; [6]): 5 | Morningglory plant response rating (morningglory; [7]): 5 | Morningglory plant response rating (morningglory; [8]): 0 | Plant response rating, Cocklebur (cocklebur; [1]): 0 | Cocklebur plant response rating (cocklebur; [2]): 2 | Plant response rating, Cocklebur (cocklebur; [3]): 0 | Cocklebur plant response rating (cocklebur; [4]): 0 | Cocklebur plant response rating (cocklebur; [6]): 4 | Cocklebur plant response rating (cocklebur; [7]): 4 | Cocklebur plant response rating (cocklebur; [8]): 0 | Plant response rating, B. signalgrass (surinam grass; [1]): 2 | B. signalgrass plant response rating (surinam grass; [2]): 2 | B. signalgrass plant response rating (surinam grass; Preemergence, Rate 62 g/ha, scale of 0 to 10 where 0 is no effect and 10 is complete control): 0 | Plant response rating, B. signalgrass (surinam grass; [3]): 2 | B. signalgrass plant response rating (surinam grass; [4]): 8 | B. signalgrass plant response rating (surinam grass; [6]): 3 | B. signalgrass plant response rating (surinam grass; [7]): 3 | B. signalgrass plant response rating (surinam grass; [8]): 10 | Plant response rating, Wild oats (wild oat; [1]): 0 | Wild oats plant response rating (wild oat; [2]): 0 | Plant response rating, Wild oats (wild oat; [3]): 0 | Wild oats plant response rating (wild oat; [4]): 5 | Wild oats plant response rating (wild oat; [5]): 0 | Wild oats plant response rating (wild oat; [6]): 0 | Wild oats plant response rating (wild oat; [7]): 2 | Wild oats plant response rating (wild oat; [8]): 8 | Plant response rating, Sugarbeets (sugar beet; [1]): 1 | Sugarbeets plant response rating (sugar beet; [2]): 3 | Plant response rating, Sugarbeets (sugar beet; [3]): 2 | Sugarbeets plant response rating (sugar beet; [4]): 6 | Sugarbeets plant response rating (sugar beet; [5]): 0 | Sugarbeets plant response rating (sugar beet; [6]): 4 | Sugarbeets plant response rating (sugar beet; [7]): 4 | Sugarbeets plant response rating (sugar beet; [8]): 7 | Plant response rating, Corn (corn; [1]): 0 | Corn plant response rating (corn; [2]): 0 | Plant response rating, Corn (corn; [3]): 0 | Corn plant response rating (corn; [4]): 0 | Corn plant response rating (corn; [5]): 0 | Corn plant response rating (corn; [6]): 0 | Corn plant response rating (corn; [7]): 1 | Corn plant response rating (corn; [8]): 0 | Plant response rating, Velvetleaf (velvetleaf; [1]): 0 | Velvetleaf plant response rating (velvetleaf; [2]): 3 | Plant response rating, Velvetleaf (velvetleaf; [3]): 0 | Velvetleaf plant response rating (velvetleaf; [4]): 0 | Velvetleaf plant response rating (velvetleaf; [5]): 0 | Velvetleaf plant response rating (velvetleaf; [6]): 3 | Velvetleaf plant response rating (velvetleaf; [7]): 3 | Velvetleaf plant response rating (velvetleaf; [8]): 2 | Plant response rating, Redroot pigweed (pigweed; [1]): 4 | Redroot pigweed plant response rating (pigweed; [2]): 4 | Plant response rating, Redroot pigweed (pigweed; [3]): 5 | Redroot pigweed plant response rating (pigweed; [4]): 7 | Redroot pigweed plant response rating (pigweed; [5]): 0 | Redroot pigweed plant response rating (pigweed; [6]): 4 | Redroot pigweed plant response rating (pigweed; [7]): 7 | Redroot pigweed plant response rating (pigweed; [8]): 9 | Plant response rating, Nutsedge (purple nutsedge; [1]): 0 | Nutsedge plant response rating (purple nutsedge; [2]): 0 | Plant response rating, Nutsedge (purple nutsedge; [3]): 0 | Nutsedge plant response rating (purple nutsedge; [4]): 0 | Nutsedge plant response rating (purple nutsedge; [5]): 0 | Nutsedge plant response rating (purple nutsedge; [6]): 0 | Nutsedge plant response rating (purple nutsedge; [7]): 0 | Plant response rating, Soybean (soybean; [1]): 3 | Soybean plant response rating (soybean; [2]): 4 | Plant response rating, Soybean (soybean; [3]): 0 | Soybean plant response rating (soybean; [4]): 2 | Soybean plant response rating (soybean; [5]): 0 | Soybean plant response rating (soybean; [6]): 5 | Soybean plant response rating (soybean; [7]): 5 | Soybean plant response rating (soybean; [8]): 3 | Plant response rating, Wheat (wheat; [1]): 0 | Wheat plant response rating (wheat; [2]): 0 | Plant response rating, Wheat (wheat; [3]): 0 | Wheat plant response rating (wheat; [4]): 1 | Wheat plant response rating (wheat; [5]): 0 | Wheat plant response rating (wheat; [6]): 0 | Wheat plant response rating (wheat; [7]): 0 | Wheat plant response rating (wheat; [8]): 1

Reference: patent publication US6737383B1, “Herbicidal oxadiazolidines” (priority 1999, dated 2004)
